The molecules below were run on spontaneously hypertensive rats (assay: Hypotensive activity in spontaneously hypertensive rats (MABP)). Conditions: SHR, gavage, two doses of 10 mg/kg or less 24 h apart, MABP at 28 h; average baseline 160±1.5 mm Hg.
Type: in vivo, rat (Okamoto strain)
Protocol: The novel compounds of the present invention are active hypotensive agents and were tested for hypotensive activity by the method of P. S. Chan and D. Poorvin, Clinical and Experimental Hypertension, 1 (6), 817-830 (1979). Male, 16 week old, spontaneously hypertensive rats of the Okamoto strain, from Taconic Farms, Germantown, N.Y., having an average mean arterial blood pressure of 160±1.5 mm of mercury, were used in the test. One to 4 rats were used per test compound. A rat was dosed by gavage with a test compound, suspended in 2% pre-boiled starch at a concentration of 50 mg/ml, at a doses of 10 mg/kg of body weight or less, with 0.9% sodium chloride loading at a dose of 25 ml/kg of body weight. A second identical dose of the test compound, without sodium chloride loading was given 24 hours later. At 28 hours after initial dose the mean arterial blood pressure (MABP) was measured. The procedure was repeated in a second and third rat when necessary.
With `C(=Cc1cccnc1)CCCNC1=Nc2cccc3cccc1c23` [N-(5-(3-Pyridinyl)-4-pentenyl)benz(cd)indol-2-amine sesqui-fumarate] the “Avg. MABP in mm Hg (No. of Rats)” value was 140 mm Hg.
For `C(=C/Cn1ccnc1)/CNC1=Nc2cccc3cccc1c23.O=C(O)/C=C/C(=O)O` [(Z)-N-(4-(1H-imidazol-1-yl)-2-butenyl)benz(cd)indol-2-amine, fumarate], the “Avg. MABP in mm Hg (No. of Rats)” value was 102 mm Hg.
For `CC(=O)N(CCCn1cncn1)C1=Nc2cccc3cccc1c23` [N-Benz(cd)indol-2-yl-N-(3-(1H-1,2,4-triazol-1-yl)propyl)acetamide], the “Avg. MABP in mm Hg (No. of Rats)” value was 118 mm Hg.
For `CN(CCCn1ccnc1)C1=Nc2cccc3cccc1c23` [N-(3-1H-imidazol-1-yl)propyl)-N-methylbenz(cd)indol-2-amine], the “Avg. MABP in mm Hg (No. of Rats)” value was 95 mm Hg.
In the case of `O=C(c1ccc(F)cc1)N(CCCCn1ccnc1)C1=Nc2cccc3cccc1c23` [N-Benz(cd)indol-2-yl-N-(4-(1H-imidazol-1-yl)butyl)-4-fluorobenzamide], the “Avg. MABP in mm Hg (No. of Rats)” value is reported as 85 mm Hg.
`Cc1cn(CCCNC2=Nc3cccc4cccc2c34)cn1.Cl.Cl` [N-(3-(4-methyl-1H-imidazol-1-yl)propyl)benz(cd)indol-2-amine, dihydrochloride] was tested, and the “Avg. MABP in mm Hg (No. of Rats)” value was 106 mm Hg.
In the case of `O=C(O)/C=C/C(=O)O.c1cc2c3c(cccc3c1)C(NCCOCCn1ccnc1)=N2` [N-(2-(2-(1H-imidazol-1-yl)ethoxy)ethyl)benz(cd)indol-2-amine, fumarate], the “Avg. MABP in mm Hg (No. of Rats)” value is reported as 108 mm Hg.
`c1cncc(CCCCNC2=Nc3cccc4cccc2c34)c1` [N-(4-(3-Pyridinyl)butyl)benz(cd)indol-2-amine sesqui-fumarate] was tested, and the “Avg. MABP in mm Hg (No. of Rats)” value was 95 mm Hg.
`O=C(c1ccc(Cl)c(Cl)c1)N(CCCCn1ccnc1)C1=Nc2cccc3cccc1c23` [N-Benz(cd)indol-2-yl-3,4-dichloro-N-(4-(1H-imidazol-1-yl)butyl)benzamide] was tested, and the “Avg. MABP in mm Hg (No. of Rats)” value was 96 mm Hg.
In the case of `Cc1ccc(C(=O)N(CCCCn2ccnc2)C2=Nc3cccc4cccc2c34)cc1` [N-(Benz(cd)indol-2-yl)-N-(4-(1H-imidazol-1-yl)butyl)-4-methylbenzamide], the “Avg. MABP in mm Hg (No. of Rats)” value is reported as 82 mm Hg.
In the case of `O=C(c1cccc(C(F)(F)F)c1)N(CCCCc1cccnc1)C1=Nc2cccc3cccc1c23` [N-Benz(cd)indol-2-yl-N-(4-(3-pyridinyl)butyl)-3-trifluoromethylbenzamide], the “Avg. MABP in mm Hg (No. of Rats)” value is reported as 115 mm Hg.
In the case of `CC(CNC1=Nc2ccc(Br)c3cccc1c23)Cn1ccnc1.Cl.Cl` (stereo not drawn) [6-Bromo-N-(3-(1H-imidazol-1-yl)-2-methylpropyl)benz(cd)indol-2-amine, dihydrochloride], the “Avg. MABP in mm Hg (No. of Rats)” value is reported as 107 mm Hg.
For `Cl.Cl.Clc1cc(Cl)c2cccc3c2c1N=C3NCCCCCCCn1ccnc1` [6,8-Dichloro-N-(7-(1H-imidazol-1-yl)heptyl)benz(cd)indol-2-amine dihydrochloride], the “Avg. MABP in mm Hg (No. of Rats)” value was 130 mm Hg.
With `O=C(O)/C=C/C(=O)O.c1cc2c3c(cccc3c1)C(NCCCn1cccn1)=N2` [N-(3-(1H-Pyrazol-1-yl)propyl)benz(cd)indol-2-amine fumarate] the “Avg. MABP in mm Hg (No. of Rats)” value was 141 mm Hg.
In the case of `Cc1csc(CCCNC2=Nc3cccc4cccc2c34)n1.O=C(O)/C=C/C(=O)O` [N-(3-(4-Methyl-2-thiazolyl)propyl)benz(cd)indol-2-amine fumarate], the “Avg. MABP in mm Hg (No. of Rats)” value is reported as 122 mm Hg.
In the case of `O=C(c1ccccc1)N(CCCCn1ccnc1)C1=Nc2cccc3cccc1c23` [N-Benz(cd)indol-2-yl-N-(4-(1H-imidazol-1-yl)butyl)benzamide], the “Avg. MABP in mm Hg (No. of Rats)” value is reported as 80 mm Hg.
In the case of `O=C(c1ccccc1Cl)N(CCCCn1ccnc1)C1=Nc2cccc3cccc1c23` [N-Benz(cd)indol-2-yl-2-chloro-N-(4-(1-imidazol-1-yl)butyl)benzamide], the “Avg. MABP in mm Hg (No. of Rats)” value is reported as 80 mm Hg.
`CCCCCCC(=O)N(CCCCn1ccnc1)C1=Nc2cccc3cccc1c23` [N-Benz(cd)indol-2-yl-N-(4-(1H-imidazol-1-yl)butyl)heptanamide] was tested, and the “Avg. MABP in mm Hg (No. of Rats)” value was 76 mm Hg.
`Clc1ccc(C(Cn2cncn2)NC2=Nc3cccc4cccc2c34)cc1.O=C(O)/C=C/C(=O)O` (stereo not drawn) [N-(1-(4-Chlorophenyl)-2-(1H-1,2,4-triazol-1-yl)ethyl)benz(cd)indol-2-amine fumarate] was tested, and the “Avg. MABP in mm Hg (No. of Rats)” value was 142 mm Hg.
In the case of `O=C(O)/C=C/C(=O)O.O=C(O)/C=C/C(=O)O.c1cc2c3c(cccc3c1)C(NCCCn1ccnc1)=N2` [N-(3-(1H-imidazol-1-yl)propyl)benz(cd)indol-2-amine, bis-fumarate], the “Avg. MABP in mm Hg (No. of Rats)” value is reported as 81 mm Hg.
For `O=C(c1cccs1)N(CCCCn1ccnc1)C1=Nc2cccc3cccc1c23` [N-Benz(cd)indol-2-yl-N-(4-(1H-imidazol-1-yl)butyl)-2-thiophenecarboxamide], the “Avg. MABP in mm Hg (No. of Rats)” value was 86 mm Hg.
For `O=C(Nc1ccccc1)N(CCCn1ccnc1)C1=Nc2cccc3cccc1c23` [N-Benz(cd)indol-2-yl-N-(3-(1H-imidazol-1-yl)propyl)-N'-phenylurea], the “Avg. MABP in mm Hg (No. of Rats)” value was 145 mm Hg.
In the case of `C[N+]1=C(NCCCCn2cc[n+](C)c2)c2cccc3cccc1c23.[I-].[I-]` [N-(4-(1H-imidazol-1-yl)butyl)benz(cd)indol-2-amine dimethiodide], the “Avg. MABP in mm Hg (No. of Rats)” value is reported as 110 mm Hg.
`CCCCC(=O)N(CCCCn1ccnc1)C1=Nc2cccc3cccc1c23` [N-Benz(cd)indol-2-yl-N-(4-(1H-imidazol-1-yl)butyl)pentanamide] was tested, and the “Avg. MABP in mm Hg (No. of Rats)” value was 84 mm Hg.
For `CCCCCC(=O)N(CCCCn1ccnc1)C1=Nc2cccc3cccc1c23` [N-Benz(cd)indol-2-yl-N-(4-(1H-imidazol-1-yl)butyl)hexanamide], the “Avg. MABP in mm Hg (No. of Rats)” value was 102 mm Hg.
`CC(=O)N(CCCn1ccnc1)C1=Nc2cccc3cccc1c23` [N-Benz(cd)indol-2-yl-N-(3-(1H-imidazol-1-yl)propyl)acetamide] was tested, and the “Avg. MABP in mm Hg (No. of Rats)” value was 102 mm Hg.
With `Cl.Cl.c1cc2c3c(cccc3c1)C(NCCCCCCCCCCn1ccnc1)=N2` [N-(10-(1H-imidazol-1-yl)decyl)benz(cd)indol-2-amine, dihydrochloride] the “Avg. MABP in mm Hg (No. of Rats)” value was 124 mm Hg.
`Fc1ccc2c3c(cccc13)C(NCCCn1ccnc1)=N2` [6-Fluoro-N-(3-(1H-imidazol-1-yl)propyl)benz(cd)indol-2-amine] was tested, and the “Avg. MABP in mm Hg (No. of Rats)” value was 94 mm Hg.
With `CC(CNC1=Nc2c(Cl)cc(Cl)c3cccc1c23)Cn1ccnc1` (stereo not drawn) [6,8-Dichloro-N-(3-(1H-imidazol-1-yl)-2-methylpropyl)benz(cd)indol-2-amine sesqui-furamate] the “Avg. MABP in mm Hg (No. of Rats)” value was 116 mm Hg.
With `O=C(O)/C=C/C(=O)O.c1ccc(CSCCNC2=Nc3cccc4cccc2c34)nc1` [N-(2-((2-pyridinylmethyl)thio)ethyl)benz(cd)indol-2-amine fumarate] the “Avg. MABP in mm Hg (No. of Rats)” value was 143 mm Hg.
With `c1cc2c3c(cccc3c1)C(NCCCCCCCn1ccnc1)=N2` [N-(7-(1H-imidazol-1-yl)heptyl)benz(cd)indol-2-amine] the “Avg. MABP in mm Hg (No. of Rats)” value was 127 mm Hg.
For `O=C(c1ccco1)N(CCCCn1ccnc1)C1=Nc2cccc3cccc1c23` [N-(Benz(cd)indol-2-yl)-N-(4-(1H-imidazol-1-yl)butyl)-2-furancarboxamide], the “Avg. MABP in mm Hg (No. of Rats)” value was 96 mm Hg.
With `O=C(O)/C=C/C(=O)O.O=C(O)/C=C/C(=O)O.OC(CNC1=Nc2cccc3cccc1c23)Cn1ccnc1` (stereo not drawn) [N-(3-(1H-imidazol-1-yl)-2-hydroxypropyl)benz(cd)indol-2-amine bis-fumarate] the “Avg. MABP in mm Hg (No. of Rats)” value was 132 mm Hg.
